Key:
[1] = system: MCL1; assay: Western blotting of MCL1 downregulation in Hep3B cells; assay type: cell-based, human; settings: 24 hours, sorafenib at 10 uM
Description: A first series of experiments was conducted to determine whether specific targeting of MCL1 recapitulates sorafenib synergy with SQT-BH3 in cells in vitro.

[2] = system: Hep3B human hepatocellular carcinoma cells; assay: Cell death of Hep3B cells transfected with truncated BID (tBID) mmRNA constructs (CellTiterGlo); assay type: cell-based; settings: CellTiterGlo (CTG) assay, varying doses
Description: One construct encoded a single copy of amino acids 61-195 of the BID protein that includes its BH3 domain (with a FLAG epitope tag). The open reading frame (ORF) amino acid sequence and corresponding nucleotide sequence encoding the ORF a.a. sequence are shown in SEQ ID NOs: 289 and 290, respectively. The sequence for the corresponding construct without the FLAG epitope tag is shown in SEQ ID NO: 291. A second construct encoded a single copy of amino acids 77-195 of the BID protein that includes its BH3 domain (with a FLAG epitope tag). The open reading frame (ORF) amino acid sequence and corresponding nucleotide sequence encoding the ORF a.a. sequence are shown in SEQ ID NOs: 292 and 293, respectively. The sequence for the corresponding construct without the FLAG epitope tag is shown in SEQ ID NO: 294. The open reading frame (ORF) amino acid sequence and corresponding nucleotide sequence encoding the ORF a.a. sequence of a third construct, containing amino acids 61-104 of the BID protein, are shown in SEQ ID NOs: 286 and 287, respectively. The sequence for the corresponding construct without the FLAG epitope tag is shown in SEQ ID NO: 288. […]
Hep3B cells/well were plated in 96 well plates and the cells were transfected with varying doses of the mmRNA constructs. Cell death was measured using the CellTiterGlo (CTG) assay. […]

Row | Molecule | MCL1 downregulation (Western blotting) [1] | apoptosis of Hep3B cells [2]
1 | CNC(=O)c1cc(Oc2ccc(NC(=O)Nc3ccc(Cl)c(C(F)(F)F)c3)cc2)ccn1 [sorafenib] | downregulated MCL1 | –
2 | tBID (77-195): mmRNA encoding a single copy of amino acids 77-195 of the BID protein with FLAG tag; SEQ ID NOs: 292 and 293 (nucleic acid, mmRNA, FLAG tag; Synthetic: hum.tBID(77-195).FLAG) DNA: ATGGAAAGTCAAGAAGACATCATCCGGAATATTGCCAGGCACCTCGCCCAGGTCGGGGACAGCATGGACCGTAGCATCCCTCCGGGCCTGGTGAACGGCCTGGCCCTGCAGCTCAGGAACACCAGCCGGTCGGAGGAGGACCGGAACAGGGACCTGGCCACTGCCCTGGAGCAGCTGCTGCAGGCCTACCCTAGAGACATGGAGAAGGAGAAGACCATGCTGGTGCTGGCCCTGCTGCTGGCCAAGAAGGTGGCCAGTCACACGCCGTCCTTGCTCCGTGATGTCTTTCACACAACAGTGAATTTTATTAACCAGAACCTACGCACCTACGTGAGGAGCTTAGCCAGAAATGGGATGGACATGGATTACAAGGACGATGATGACAAG | – | induced apoptosis of Hep3B cells
